# Experimental data: patent publication US11267812B2 (Mirati Therapeutics, Inc., priority 2016, dated 2022)
# Read-outs that look alike come from different tables or passages of the source.
# System: Phospho-ERK in NCI-H358 cells expressing KRas G12C
# Assay: Cellular inhibition of KRas G12C by Phospho-ERK measurement in NCI-H358 cells
# Format: cell-based
# Conditions: Homo sapiens, read-out: IC50 (pERK(Thr202/Tyr204) normalized with GAPDH)
# Procedure: The cellular inhibition of KRAs G12C by exemplary compounds of the present invention was determined by measuring the amount of a downstream marker of KRas activity, phosphorylated ERK (“Phospho-ERK”).
# NCI-H358 cells (ATCC CRL-5807) express KRas G12C and were grown in RPMI medium supplemented with 10% fetal bovine serum, penicillin/streptomycin and 10 mM HEPES. Cells were plated in poly-D-Lysine coated 96-well plates at a concentration of 50,000 cells/well and allowed to attach for 8-12 hours. Diluted compounds were then added at a final concentration of 0.5% DMSO. After 3 hours, the medium was removed, 150 μL of 4% formaldehyde was added and the plates were incubated for 20 minutes. The plates were washed with PBS, and permeabilized using 150 μL of ice cold 100% methanol for 10 minutes. Non-specific antibody binding to the plates was blocked using 100 μL Licor Blocking Buffer (Li-Cor Biotechnology, Lincoln Nebr.) for 1 hour at room temperature. Positive control samples and samples lacking cells were parallel processed with test samples as standards.
# The amount Phospho-ERK was determined using an antibody specific for the phosphorylated form of ERK and compared to the amount of GAPDH. Primary antibodies used for detection were added as follows: Phospho-ERK (Cell Signaling cs9101) diluted 1:500 and GAPDH (Millipore MAB374) diluted 1:5000 in Licor block+0.05% Tween 20. The plates were incubated for 2 hours at room temperature. The plates were washed with PBS+0.05% Tween 20.
# Secondary antibodies used to visualize primary antibodies were added as follows: Anti-rabbit-680 diluted 1:1000 and Anti-mouse-800 diluted 1:1000 in Licor Block+0.050 Tween 20 and incubated for 1 hour at room temperature. The plates were washed with PBS+0.05% o Tween 20. A100 L aliquot of PBS was added to each well and the plates were read on a LICOR AERIUS plate reader.
# The pERK(Thr202/Tyr204) signal was normalized with the GAPDH signal and percent of DMSO control values were calculated. IC50 values were generated using a 4 parameter fit of the dose response curve. Key: “A”≥0.001-≤1 μM; “B”[…] and ND=not determined.
# [1] = NCI-H358 cells, 3 hours compound treatment
SMILES,IC50 [1] [nM],"IC50 (NCI-H358, 3 h) [nM]"
"C=CC(=O)N1CCN(c2nc(OC[C@@H]3CCN(C)C3)nc3c2CCN(c2cc(O)cc4ccccc24)C3)CC1CC#N (stereo partly drawn) [Example 179, 2-[4-[7-(3-hydroxy-1-naphthyl)-2-[[(3R)-1-methylpyrrolidin-3-yl]methoxy]-6,8-dihydro-5H-pyrido[3,4-d]pyrimidin-4-yl]-1-prop-2-enoyl-piperazin-2-yl]acetonitrile]",1 to 1000,–
"C=CC(=O)N1CCN(c2nc(OC[C@@H]3CCCN3C)nc3c2CCN(c2cc(F)ccc2OC(F)(F)F)C3)CC1CC#N (stereo partly drawn) [Example 225, 2-(1-acryloyl-4-(7-(5-fluoro-2-(trifluoromethoxy)phenyl)-2-(((S)-1-methylpyrrolidin-2-yl)methoxy)-5,6,7,8-tetrahydropyrido[3,4-d]pyrimidin-4-yl)piperazin-2-yl)acetonitrile]",1 to 1000,–
"C=CC(=O)N1CCN(c2nc(O[C@H](C)CN3CCCC3)nc3c2CCN(c2cc(O)cc4ccccc24)C3)CC1 [Example 120, (R)-1-(4-(7-(3-hydroxynaphthalen-1-yl)-2-((1-(pyrrolidin-1-yl)propan-2-yl)oxy)-5,6,7,8-tetrahydropyrido[3,4-d]pyrimidin-4-yl)piperazin-1-yl)prop-2-en-1-one]",1 to 1000,–
"C=CC(=O)N1CCN(c2nc(OC[C@@H]3CCCN3C)nc3c2CCN(c2cccc(C)c2C)C3)CC1CC#N (stereo partly drawn) [Example 228, 2-(1-acryloyl-4-(7-(2,3-dimethylphenyl)-2-(((S)-1-methylpyrrolidin-2-yl)methoxy)-5,6,7,8-tetrahydropyrido[3,4-d]pyrimidin-4-yl)piperazin-2-yl)acetonitrile]",1 to 1000,–
"C=CC(=O)N1CCN(c2nc(OC[C@H]3CCCN3C)nc3c2CCN(c2cc(O)cc4ccccc24)C3)CC1 [Example 187, (R)-1-(4-(7-(3-hydroxynaphthalen-1-yl)-2-((1-methylpyrrolidin-2-yl)methoxy)-5,6,7,8-tetrahydropyrido[3,4-d]pyrimidin-4-yl)piperazin-1-yl)prop-2-en-1-one]",–,1 to 1000
"C=CC(=O)N1CCN(c2nc(O[C@@H](C)[C@@H]3CCCN3C)nc3c2CCN(c2cc(O)cc4ccccc24)C3)CC1 [Example 130, 1-(4-(7-(3-hydroxynaphthalen-1-yl)-2-((S)-1-((S)-1-methylpyrrolidin-2-yl)ethoxy)-5,6,7,8-tetrahydropyrido[3,4-d]pyrimidin-4-yl)piperazin-1-yl)prop-2-en-1-one]",1 to 1000,–
"C=CC(=O)N1CCN(c2nc(OC(C)CN(C)C)nc3c2CCN(c2cc(O)cc4ccccc24)C3)CC1 (stereo not shown) [Example 11, 1-(4-(2-((1-(dimethylamino)propan-2-yl)oxy)-7-(3-hydroxynaphthalen-1-yl)-5,6,7,8-tetrahydropyrido[3,4-d]pyrimidin-4-yl)piperazin-1-yl)prop-2-en-1-one]",1 to 1000,–
"C=CC(=O)N1CCN(c2nc(OCCCN3C[C@@H]4C[C@H]3CO4)nc3c2CCN(c2cc(O)cc4ccccc24)C3)CC1CC#N (stereo partly drawn) [Example 153, 2-[4-[7-(3-hydroxy-1-naphthyl)-2-[3-[(1S,4S)-2-oxa-5-azabicyclo[2.2.1]heptan-5-yl]propoxy]-6,8-dihydro-5H-pyrido[3,4-d]pyrimidin-4-yl]-1-prop-2-enoyl-piperazin-2-yl]acetonitrile]",1 to 1000,–
"C=CC(=O)N1CCN(c2nc(OCCCN3CCOCC3)nc3c2CCN(c2cc(O)cc4ccccc24)C3)CC1 [Example 74, 1-(4-(7-(3-hydroxynaphthalen-1-yl)-2-(3-morpholinopropoxy)-5,6,7,8-tetrahydropyrido[3,4-d]pyrimidin-4-yl)piperazin-1-yl)prop-2-en-1-one]",1 to 1000,–
"C=CC(=O)N1CCN(c2nc(OC[C@H]3CCCN3C)nc3c2CCN(c2cc(O)cc4ccccc24)C3)CC1CC#N (stereo partly drawn) [Example 178, 2-[4-[7-(3-hydroxy-1-naphthyl)-2-[[(2R)-1-methylpyrrolidin-2-yl]methoxy]-6,8-dihydro-5H-pyrido[3,4-d]pyrimidin-4-yl]-1-prop-2-enoyl-piperazin-2-yl]acetonitrile]",1 to 1000,–
"C=CC(=O)N1CCN(c2nc(OC[C@@H]3CCCN3C)nc3c2CCN(c2cccc(C)c2C(F)(F)F)C3)CC1CC#N (stereo partly drawn) [Example 265, 2-(1-acryloyl-4-(7-(3-methyl-2-(trifluoromethyl)phenyl)-2-(((S)-1-methylpyrrolidin-2-yl)methoxy)-5,6,7,8-tetrahydropyrido[3,4-d]pyrimidin-4-yl)piperazin-2-yl)acetonitrile]",1 to 1000,–
"C=CC(=O)N1CCN(c2nc(OC[C@@H]3C[C@@H](OC)CN3C)nc3c2CCN(c2cccc4ccccc24)C3)CC1CC#N (stereo partly drawn) [Example 268, 2-(1-acryloyl-4-(2-(((2S,4R)-4-methoxy-1-methylpyrrolidin-2-yl)methoxy)-7-(naphthalen-1-yl)-5,6,7,8-tetrahydropyrido[3,4-d]pyrimidin-4-yl)piperazin-2-yl)acetonitrile]",1 to 1000,–
"C=CC(=O)N1CCN(c2nc(OCC(CO)N(C)C)nc3c2CCN(c2cc(O)cc4ccccc24)C3)CC1 (stereo not shown) [Example 55, 1-(4-(2-(2-(dimethylamino)-3-hydroxypropoxy)-7-(3-hydroxynaphthalen-1-yl)-5,6,7,8-tetrahydropyrido[3,4-d]pyrimidin-4-yl)piperazin-1-yl)prop-2-en-1-one]",1 to 1000,–
"C=CC(=O)N1CCN(c2nc(OCCCN3C[C@@H]4C[C@H]3CO4)nc3c2CCN(c2cccc4ccccc24)C3)CC1CC#N (stereo partly drawn) [Example 154, 2-[4-[7-(1-naphthyl)-2-[3-[(1S,4S)-2-oxa-5-azabicyclo[2.2.1]heptan-5-yl]propoxy]-6,8-dihydro-5H-pyrido[3,4-d]pyrimidin-4-yl]-1-prop-2-enoyl-piperazin-2-yl]acetonitrile]",1 to 1000,–
"C=CC(=O)N1CCN(c2nc(OC[C@H]3CCN(C)C3)nc3c2CCN(c2cc(O)cc4ccccc24)C3)CC1 [Example 188, (S)-1-(4-(7-(3-hydroxynaphthalen-1-yl)-2-((1-methylpyrrolidin-3-yl)methoxy)-5,6,7,8-tetrahydropyrido[3,4-d]pyrimidin-4-yl)piperazin-1-yl)prop-2-en-1-one]",–,1 to 1000
"C=CC(=O)N1CCN(c2nc(OCC3CCN(C4CC4)C3)nc3c2CCN(c2cc(O)cc4ccccc24)C3)CC1 (stereo not shown) [Example 190, 1-(4-(2-((1-cyclopropylpyrrolidin-3-yl)methoxy)-7-(3-hydroxynaphthalen-1-yl)-5,6,7,8-tetrahydropyrido[3,4-d]pyrimidin-4-yl)piperazin-1-yl)prop-2-en-1-one]",1 to 1000,–
"C=CC(=O)N1CCN(c2nc(OC(C)CCN(C)C)nc3c2CCN(c2cc(O)cc4ccccc24)C3)CC1 (stereo not shown) [Example 21, 1-(4-(2-((4-(dimethylamino)butan-2-yl)oxy)-7-(3-hydroxynaphthalen-1-yl)-5,6,7,8-tetrahydropyrido[3,4-d]pyrimidin-4-yl)piperazin-1-yl)prop-2-en-1-one]",1 to 1000,–
"C=CC(=O)N1CCN(c2nc(OCC3CCCN(C)C3)nc3c2CCN(c2cc(O)cc4ccccc24)C3)CC1 (stereo not shown) [Example 72, 1-(4-(7-(3-hydroxynaphthalen-1-yl)-2-((1-methylpiperidin-3-yl)methoxy)-5,6,7,8-tetrahydropyrido[3,4-d]pyrimidin-4-yl)piperazin-1-yl)prop-2-en-1-one]",1 to 1000,–
"C/C=C/C(=O)N1CCN(c2nc(OC[C@@H]3CCCN3C)nc3c2CCN(c2cccc4ccccc24)C3)CC1CC#N (stereo partly drawn) [Example 263, 2-[1-[(E)-but-2-enoyl]-4-[2-[[(2S)-1-methylpyrrolidin-2-yl]methoxy]-7-(1-naphthyl)-6,8-dihydro-5H-pyrido[3,4-d]pyrimidin-4-yl]piperazin-2-yl]acetonitrile]",1 to 1000,–
"C=CC(=O)N1CCN(c2nc(O[C@H](C)CN3CCOCC3)nc3c2CCN(c2cc(O)cc4ccccc24)C3)CC1 [Example 56, (R)-1-(4-(7-(3-hydroxynaphthalen-1-yl)-2-((1-morpholinopropan-2-yl)oxy)-5,6,7,8-tetrahydropyrido[3,4-d]pyrimidin-4-yl)piperazin-1-yl)prop-2-en-1-one]",1 to 1000,–
"C=CC(=O)N1CCN(c2nc(OCCCN3CCCOCC3)nc3c2CCN(c2cc(O)cc4ccccc24)C3)CC1 [Example 101, 1-(4-(2-(3-(1,4-oxazepan-4-yl)propoxy)-7-(3-hydroxynaphthalen-1-yl)-5,6,7,8-tetrahydropyrido[3,4-d]pyrimidin-4-yl)piperazin-1-yl)prop-2-en-1-one]",1 to 1000,–
"C=CC(=O)N1CCN(c2nc(OC[C@@H]3CCCN3C)nc3c2CCN(c2cc(O)cc4ccccc24)C3)C(CO)C1 (stereo partly drawn) [Example 169, 1-[3-(hydroxymethyl)-4-[7-(3-hydroxy-1-naphthyl)-2-[[(2S)-1-methylpyrrolidin-2-yl]methoxy]-6,8-dihydro-5H-pyrido[3,4-d]pyrimidin-4-yl]piperazin-1-yl]prop-2-en-1-one]",1 to 1000,–
